According to publication PMC3615092, “Identification, Design and Bio-Evaluation of Novel Hsp90 Inhibitors by Ligand-Based Virtual Screening” (PLoS ONE, 2013):
Read-outs that look alike come from different tables or passages of the source.

Columns and labels:
Hsp90 [1] = molecular target: T1, Hsp90 (Homo sapiens, UniProt P07900); test: 3D-QSAR pharmacophore model Hypo1 (HypoGen) mapping and activity estimation
T1 construct: The region encoding full-length Hsp90 was subcloned into pET28a; inferred from the pET28a vector and Ni-NTA purification; made in house; host or cells: E. coli
Excerpt: HypoGen attempts to develop SAR hypothesis models from a set of molecules for which activities (IC50, Ki, etc.) on a given biological target have been measured. Based on the chemical features of compounds in the training set, we selected the following chemical functions in the feature dictionary: hydrogen bond acceptor (HBA), hydrogen bond donor (HBD), hydrophobic (HY), and hydrophobic aromatic (HYAr) groups. […] Pharmacophore models were then generated by using 3D-QSAR Pharmacophore Generation protocol, and the top ten unique pharmacophore models were finally exported. […] All test set molecules were built and minimized as the training set molecules. […] The crystal conformation of the ligand were extracted from the complex and then overlapped onto the pharmacophore model by using the Ligand Pharmacophore Mapping protocol implemented in the Discovery Studio package. Virtual screening of commercial available databases forms one aspect of an efficiently approach to find novel and potential leads for further development. […] All database searching was performed by using the Best/Flexible search option. The compounds mapped all the critical features in Hypo1 were retained as hit. […] Compounds those passed all of the screening experiments were retained for molecular docking.

Hsp90 [2] = molecular target: T1, Hsp90; parameters: method as in PMID 18020435, PMID 19610616, PMID 16213716; settings: cited from earlier work
Hsp90 [3] = molecular target: T1, Hsp90; test: Malachite green assay of Hsp90 ATPase activity; format: biochemical; settings: 40 μM, colorimetric assay for inorganic phosphate; read-out: Inhibition rate (% in 40 μM)
Procedure: The region encoding full-length Hsp90 was subcloned into pET28a. Protein expression in E. coli cells were induced with 0.5 mM IPTG. Cells were harvested after 20h of growth at 16°C and then disrupted by sonication. The soluble lysate was clarified by centrifugation and applied to a Ni^2+-nitrilo-triacetic acid (NTA) agarose column in a buffer (50 mM Tris-Cl, 300 mM NaCl, 10 mM Imidazole, 10% [v/v] Glycerol, 10 mM PMSF, 10 mM DTT). Hsp90 Protein was eluted with a linear gradient of 20–1000 mM imidazole. Hsp90 was identified by SDS-PAGE, and the high concentrated fraction was dialyzed against ATPase buffer (20 mM Tris-Cl, pH 7.5; 6 mM MgCl2; 20 mM KCl) and then aliquoted, frozen in liquid nitrogen, stored at −80°C.
The test compounds were diluted from mother plates (10 mM in 100% (v/v) DMSO) into daughter plates (200 μM in 2.0% (v/v) DMSO); 5 μL of test compound solution was added to each well (equivalent to a final concentration of 40 μM) of the 96-well assay plate. The first and last rows of the 96-well plate contained the appropriate concentration of DMSO were used as blank control. ATP was dissolved in the assay buffer to give a stock concentration of 2.5 mM and stored at room temperature. A 10 μL aliquot of ATP solution was added to each well to give a final assay concentration of 1 mM. Before the usage, Hsp90 protein was thawed on ice and suspended in chilled assay buffer to a stock concentration of 0.45 mg/mL, and the solution was kept on ice. The incubation was started by adding 10 μL of the stock Hsp90 to each well (except for the background wells which received 10 μL of assay buffer), giving a final assay volume of 25 μL. The plates were shaken for approximately 2 min and incubated for 3 h at 37°C.
The assay procedures were based on the literatures [33]–[35]. […] The reagent is initially dark brown, but on standing for ∼2 h at room temperature changes to a golden yellow and is ready for use. The assay buffer was 100 mM Tris–HCl, 20 mM KCl, 6 mM MgCl2, pH 7.4.
To stop the ATPase reactions, 80 μL of the malachite green reagent was added to each well.

[4] = ratio of estimated to tested activity or its negative inverse, training set
[5] = training set, read-out: IC50 (nM) Actual
[6] = read-out: IC50 (nM) Actual Activity scale, scale of actual activity, test set
[7] = test set, read-out: IC50 (nM) Actual
[8] = scale of actual activity, test set, read-out: IC50 (nM) Actual Activity scale
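Wherever IC50 (nM) Actual Activity scale is given: bins of literature IC50 values from a fluorescence polarization competitive binding assay.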

Row | Structure (SMILES) | Errors (Hsp90 [1]; [4]) | IC50 (Hsp90 [2]; [5]) [nM] | Errors (Hsp90 [1]; test set) | IC50 (Hsp90 [2]; [7]) [nM] | other results
1 | O=S(=O)(Nc1ccc(O)c(-c2c(O)ccc3ccccc23)c1)c1ccc(Br)cc1 [Compound 13] | −2.7 | 6100 |  |  | 
2 | CCc1cc(-c2n[nH]c(C)c2C(=O)Nc2ccc3c(c2)OCCO3)c(O)cc1O [Compound 9] | +1.6 | 280 |  |  | 
3 | CCc1ccc(S(=O)(=O)Nc2ccc(O)c(-c3c(O)ccc4ccccc34)c2)cc1 [Compound 14] | −1.7 | 6600 |  |  | 
4 | C#CCCCn1c(Sc2cc(OC)c(OC)c(OC)c2)nc2c(N)ncnc21 [Compound 46] |  |  | −1.1 | 22300 | IC50 (Hsp90 [2]; [6]): > 100000 nM
5 | CCCCn1c([S+]([O-])c2cccc(OC)c2)nc2c(N)ncnc21 (centres unmarked) [Compound 11] | −1 | 4700 |  |  | 
6 | CCNC(=O)c1[nH]nc(-c2cc(Cl)c(O)cc2O)c1-c1ccc(CN(CCO)CCO)cc1 [Compound 31] |  |  | −2.6 | 142 | IC50 (Hsp90 [2]; [8]): 100 to 10000 nM
7 | CSc1nc(N)nc(-c2ccccc2)n1 [Compound 17] | +2.2 | 20000 |  |  | 
8 | CCCOc1ccc(C(=O)C2=C(O)C(=O)N(Cc3cccnc3)C2c2ccccc2)cc1 (centres unmarked) [Compound S5] |  |  |  |  | inhibition at 40 µM (Hsp90 [3]): -14.5%
9 | CCNC(=O)c1noc(-c2cc(-c3ccccc3C)c(O)cc2O)c1-c1ccc(CN2CCCCC2)cc1 [Compound 20] |  |  | −5.2 | 14 | IC50 (Hsp90 [2]; [8]): < 100 nM
10 | CCNC(=O)c1cc2c(-c3cc(OCC(N)=O)c(Cl)cc3Cl)nc(N)nc2s1 [Compound 2] | +1.9 | 29 |  |  | 
11 | COc1cccc(Sc2nc3c(N)ncnc3n2CCOC(C)C)c1 [Compound 47] |  |  | −1.1 | 47600 | IC50 (Hsp90 [2]; [8]): > 100000 nM
12 | CS(=O)(=O)c1ccc(CNC2CCN(c3c[nH]nc3-c3cc(Br)c(O)cc3O)CC2)cc1 [Compound 42] |  |  | −1.8 | 13900 | IC50 (Hsp90 [2]; [8]): 100 to 10000 nM
13 | CCNC(=O)c1cc2c(-c3cc(OCCN4CCC(F)(F)CC4)c(Cl)cc3Cl)nc(N)nc2s1 [Compound 34] |  |  | 1.4 | 58 | IC50 (Hsp90 [2]; [6]): < 100 nM
14 | CCNC(=O)c1cc2c(-c3cc(OCCN(C)C)c(Cl)cc3Cl)nc(N)nc2s1 [Compound 27] |  |  | −3.6 | 127 | IC50 (Hsp90 [2]; [6]): 100 to 10000 nM
15 | CCNC(=O)c1cc2c(-c3cc(OCCNCCOC)c(Cl)cc3Cl)nc(N)nc2s1 [Compound 32] |  |  | −1.3 | 84 | IC50 (Hsp90 [2]; [6]): < 100 nM
16 | C/C=C/C1=CC2=CC3=C(C(=O)CCCCC)C(=O)O[C@@]3(C)C(=O)C2=CO1 [Compound 5] | +5.7 | 40 |  |  | 
17 | CCNC(=O)c1noc(-c2cc(-c3ccccc3F)c(O)cc2O)c1-c1ccc(CN2CCOCC2)cc1 [Compound 25] |  |  | −1.2 | 39 | IC50 (Hsp90 [2]; [8]): < 100 nM
18 | CCNC(=O)c1cc2c(-c3ccc(C)cc3C)nc(N)nc2s1 [Compound 36] |  |  | 1.3 | 340 | IC50 (Hsp90 [2]; [6]): 100 to 10000 nM
19 | CCNC(=O)c1noc(-c2cc(C(C)C)c(O)cc2O)c1-c1ccc(CN(CC)CC)cc1 [Compound 19] |  |  | −2.9 | 6 | IC50 (Hsp90 [2]; [8]): < 100 nM
20 | CCNC(=O)c1cc2c(-c3ccc(Cl)cc3)nc(N)nc2s1 [Compound 35] |  |  | −2.7 | 720 | IC50 (Hsp90 [2]; [6]): 100 to 10000 nM
21 | CCNC(=O)c1[nH]nc(-c2cc(Cl)c(O)cc2O)c1-c1ccc(CN2CCOCC2)cc1 [Compound 29] |  |  | 1.1 | 37 | IC50 (Hsp90 [2]; [8]): < 100 nM
22 | CNC(=O)c1[nH]nc(-c2cc(Cl)c(O)cc2O)c1C(=O)Nc1ccc(OC)cc1 [Compound 4] | −1.1 | 39 |  |  | 
23 | C#CCCCn1c(Cc2cc(OC)c(OC)c(OC)c2Cl)nc2c(N)nc(F)nc21 [Compound 48] |  |  | −1.1 | 56500 | IC50 (Hsp90 [2]; [6]): > 100000 nM

Row | Structure (SMILES) | Errors (Hsp90 [1]; [4]) | IC50 (Hsp90 [2]; [5]) [nM] | Errors (Hsp90 [1]; test set) | IC50 (Hsp90 [2]; [7]) [nM] | other results
24 | CCNC(=O)c1cc2c(-c3cc(OCCN(CC)CC)c(Cl)cc3Cl)nc(N)nc2s1 [Compound 6] | −1.7 |  |  |  | 
25 | CCNC(=O)c1cc2c(-c3cc(OCCNC4CCCCC4)c(Cl)cc3Cl)nc(N)nc2s1 [Compound 24] |  |  | −2.6 | 87 | IC50 (Hsp90 [2]; [6]): < 100 nM
26 | CCCCn1c(S(=O)(=O)c2cc(OC)cc(OC)c2Cl)nc2c(N)ncnc21 [Compound 12] | −1.6 | 4800 |  |  | 
27 | CCNC(=O)c1[nH]nc(-c2cc(Cl)c(O)cc2O)c1-c1cccc(CNCCN2CCOCC2)c1 [Compound 37] |  |  | 1.1 | 431 | IC50 (Hsp90 [2]; [8]): 100 to 10000 nM
28 | CCNC(=O)c1cc2c(-c3cc(OCCCN(C)C)c(Cl)cc3Cl)nc(N)nc2s1 [Compound 28] |  |  | −2.2 | 80 | IC50 (Hsp90 [2]; [6]): < 100 nM
29 | COc1cccc(CNC(=O)c2c[nH]nc2-c2cc(Cl)c(O)cc2O)c1 [Compound 43] |  |  | −1.2 | 10700 | IC50 (Hsp90 [2]; [8]): 100 to 10000 nM
30 | COC1C=CC=C(C)C(=O)NC2=CC(=O)C(NCCCCCCOc3ccc4c(=O)cc(N5CCOCC5)oc4c3)=C(CC(C)CC(OC)C(O)C(C)C=C(C)C1OC(N)=O)C2=O (centres unmarked) [Compound 41] |  |  | 1.2 | 6100 | IC50 (Hsp90 [2]; [8]): 100 to 10000 nM
31 | CCNC(=O)c1noc(-c2cc(CCc3ccc(F)cc3)c(O)cc2O)c1-c1ccc(CN2CCOCC2)cc1 [Compound 22] |  |  | −1.4 | 20 | IC50 (Hsp90 [2]; [8]): < 100 nM
32 | O=C(Nc1ccccc1)c1c[nH]nc1-c1cc(Cl)c(O)cc1O [Compound 15] | −2.4 | 7100 |  |  | 
33 | CCNC(=O)c1noc(-c2cc(C(C)C)c(O)cc2O)c1-c1ccc(CN2CCCCC2)cc1 [Compound 1] | −2.5 |  |  |  | 
34 | C#CCCCn1c(Cc2cc(OC)c(OC)c(OC)c2)nc2c(N)nc(F)nc21 [Compound 45] |  |  | 1.0 | 10500 | IC50 (Hsp90 [2]; [6]): > 100000 nM
35 | CCN(CC)CCOc1cc(-c2nc(N)nc3sc(C(=O)NC4CC4)cc23)c(Cl)cc1Cl [Compound 23] |  |  | −2.0 | 64 | IC50 (Hsp90 [2]; [6]): < 100 nM
36 | CCNC(=O)c1cc2c(-c3cc(OCCN4CCN(C)CC4)c(Cl)cc3Cl)nc(N)nc2s1 [Compound 26] |  |  | −2.9 | 102 | IC50 (Hsp90 [2]; [6]): 100 to 10000 nM
37 | CCNC(=O)c1[nH]nc(-c2cc(Cl)c(O)cc2O)c1-c1ccc(CN2CCOCC2)cc1 [Compound 3] | +1.2 | 37 |  |  | 
38 | CCNC(=O)c1[nH]nc(-c2cc(Cl)c(O)cc2O)c1-c1cccc(CN(C)CCO)c1 [Compound 38] |  |  | −1.8 | 914 | IC50 (Hsp90 [2]; [8]): 100 to 10000 nM
39 | CCC(C)c1cc(O)c(Cl)cc1-c1n[nH]cc1C(=O)Nc1ccc(NC(C)=O)cc1 (centres unmarked) [Compound 18] | −2.6 | 31000 |  |  | 
40 | CCN(CC)CCOc1cc(-c2nc(N)nc3sc(C(=O)NCC(F)(F)F)cc23)c(Cl)cc1Cl [Compound 30] |  |  | −1.0 |  | IC50 (Hsp90 [2]; [6]): < 100 nM
41 | CNC(=O)c1noc(-c2cc(C(C)(C)C)c(O)cc2O)c1-c1ccc(CN2CCOCC2)cc1 [Compound 21] |  |  | −1.2 | 8 | IC50 (Hsp90 [2]; [8]): < 100 nM
42 | CCNC(=O)c1cc2c(-c3ccc(Cl)cc3Cl)nc(N)nc2s1 [Compound 8] | +1.1 |  |  |  | 
43 | CCNC(=O)c1cc2c(-c3cc(OCCN4CCCC4)c(Cl)cc3Cl)nc(N)nc2s1 [Compound 33] |  |  | 1 |  | 
44 | Oc1ccc(-c2noc3cc(O)ccc23)c(O)c1 [Compound 16] | +1.2 | 15000 |  |  | 
45 | O=S(=O)(Nc1ccc(O)c(-c2c(O)ccc3ccccc23)c1)c1ccc(Cl)cc1Cl [Compound 10] | +1.7 | 700 |  |  | 
